Source: publication PMC5773487, “Harnessing insulin- and leptin-induced oxidation of PTP1B for therapeutic development” (Nature Communications, 2018)

B1: scFv45: recombinant conformation-sensor single-chain variable fragment antibody recognizing oxidized PTP1B (antibody, V domains shown)
VH: TVTLDESGGGLQAPGGALSLVCKASGFTFSSYDMGWIRQAPGKGLEYVAGITDNGRYASYGSAVDGRATISRDNGQSSVRLQLNNLRAEDTGTYYCARDDGSGWTGNSIDAWGHGTEVIVSE
VL: ALTQPSSVSANPGGTVKITCSGSSSAYGYGWYQQKSPGSAPVTVIYNNNKRPSNIPSRFSGSKSGSTGTLTITGVQAEDEAVYFCGSEDSSTDAIFGAGTTLTVL

Legend:
[1] = system: insulin signaling in 293T cells; test: insulin signaling in 293T cells (immunoblot); assay type: cell-based; conditions: for insulin-induced activation of AKT (pThr308) / insulin-induced phosphorylation of insulin receptor β-subunit (IR-β): 293T cells, compound 2 μM 1 h, insulin 25 nM
Method: To study the effect of chelerythrine and protopine on insulin signaling we used 293T cells (ATCC) and cultured in DMEM containing 10% FBS. For insulin signaling, cells were serum starved for 16 h and then treated with chelerythrine (2 µM) or protopine (2 µM) for 1 h. Following which, cells were treated with 25 nM insulin for various times (0, 5, 10, 20 min) at 37 °C. Cells were washed with PBS and lysed in de-gassed RIPA lysis buffer (25 mM HEPES pH 7.5, 150 mM NaCl, 0.25% Deoxychloate, 10% Glycerol, 25 mM NaF, 10 mM MgCl2, 1 mM EDTA, 1% Triton X-100, 0.5 mM PMSF, 10 mM Benzamidine, cOmplete protease inhibitor cocktail (Roche)). Soluble proteins were harvested by centrifugation at 13,000×g for 10 min at 4 °C and quantitated. Total proteins in the cell lysates were separated by SDS-PAGE and tyrosyl phosphorylation of the IR-β subunit and downstream AKT activation was monitored. To test the effect of suppressing H2O2 levels on the function of the compounds, catalase was ectopically expressed in cells for 24 h. Following which, the cells were treated with the compounds as mentioned above. […] Catalase expression was detected in the cell samples with a rabbit polyclonal antibody (Abcam, ab52477).
Mammalian expression plasmids used in this study were as follows: pCMV-FLAG and pCMV-FLAG-PTP1B (wt and -mut2). Empty vector, FLAG-PTP1B-wt, or FLAG-PTP1B-mut2 were transfected into 293T cells for 24 h, following which, cells were serum starved for 8 h and then treated with chelerythrine (2 µM) for 1 h. Subsequently, cells were treated with 10 nM insulin for various times (0, 10, 20 min) at 37 °C. Cells were washed with PBS and lysed in de-gassed RIPA lysis buffer (25 mM HEPES pH 7.5, 150 mM NaCl, 0.25% Deoxycholate, 10% Glycerol, 25 mM NaF, 10 mM MgCl2, 1 mM EDTA, 1% Triton X-100, 0.5 mM PMSF, 10 mM Benzamidine, cOmplete protease inhibitor cocktail (Roche)). Soluble proteins were harvested by centrifugation at 13,000×g for 10 min at 4 °C and quantitated. Total proteins in the cell lysates were separated by SDS-PAGE and tyrosyl phosphorylation of the IR-β subunit was analyzed by immunoblotting.

[2] = system: high fat diet-fed C57Bl6/J mice; test: body weight, glucose and insulin tolerance tests in diet-fed mice; assay type: in vivo; conditions: for glucose tolerance (GTT) / insulin sensitivity (ITT): HFD fed 14-week-old male mice; for glucose tolerance (GTT): D-glucose 2 mg g−1; for insulin sensitivity (ITT): insulin 0.75 mU g−1
Method: Animal experiments were performed according to protocols approved by the Institutional Animal Use and Care Committee of Cold Spring Harbor laboratory. Ten week-old male C57bl6/J mice fed chow diet or high fat diet (D12492) were acclimatized for 10 days under standard conditions before experiments. Mice were intraperitoneally (i.p.) injected once daily with vehicle, 3 mg kg^−1 of chelerythrine or 3 mg kg^−1 of protopine for 30 days. Mice were killed after 6 h of fasting, and serum samples were collected to measure the metabolic parameters and tissue samples were collected for studying changes in signaling. No animals were excluded from the analysis.
Glucose in tail blood was measured using a glucometer (One-Touch Basic; Lifescan, CA). For glucose tolerance tests (GTTs), mice were fasted for 10 h and then injected with 20% D-glucose (2 mg g^−1 body weight) and the blood glucose was monitored immediately before and at 15, 30, 60, and 120 min following the injection. For insulin tolerance tests (ITTs), 4 h fasted animals were given insulin (0.75 mU g^−1) and blood glucose was measured immediately before and at 30, 60, and 120 min post-injection. Statistical analysis was performed using ANOVA for both GTT and ITT.

[3] = system: leptin signaling in hepatic stellate cells; test: leptin signaling in hepatic stellate cells (immunoblot); assay type: cell-based, human; conditions: for effect on JAK2 phosphorylation in presence of apocynin: NOX inhibitor apocynin; for leptin-induced tyrosine phosphorylation of JAK2: chelerythrine 0–5 μM or ectopic scFv45
Method: Human hepatic stellate cells (HSteCs; ScienCell research laboratories, CA) were cultured according to manufacturer’s instructions. Cells were seeded on poly-L-lysine coated dishes and maintained in Stellate Cell Medium (SteCM, Cat. #5301). When cells reached 70% confluency they were split for various experiments. To study leptin signaling, HSCs were incubated in serum-free DMEM for 24 h and then stimulated with varying concentration of leptin (0, 10, 25, 50, 100, and 200 ng ml^−1) for 15 min. To study the effect of chelerythrine and protopine, serum starved cells were incubated with the compounds at varying concentrations (0–5 µM) for 1 h prior to leptin stimulation. In some groups, cells were pre-incubated (60 min) with the NADPH oxidase inhibitor apocynin (100 nM), before stimulation with leptin.

| Molecule | insulin-induced activation of AKT (pThr308) [1] | insulin-induced phosphorylation of insulin receptor β-subunit (IR-β) [1] | weight loss in high fat diet-fed mice ([2]; 3 mg kg−1 i.p. once daily, in words) | glucose tolerance (GTT) [2] | insulin sensitivity (ITT) [2] | basal signaling in the absence of insulin or leptin [1] | stimulatory effect on IR-β phosphorylation and AKT activation upon catalase overexpression ([1]; 293T cells expressing catalase, 2 μM) | insulin signaling in cells expressing PTP1B-mut2 ([1]; 293T, 2 μM, insulin 10 nM) | insulin signaling in control and PTP1B-wt expressing cells ([1]; 293T, 2 μM, insulin 10 nM) | observed cellular efficacy ([1]; reviewer's remark in peer review file) [µM] | effect on JAK2 phosphorylation in presence of apocynin [3] | leptin-induced tyrosine phosphorylation of JAK2 [3] | change in body weight, chow diet ([2]; chow diet-fed mice, 3 mg kg−1 i.p. once daily) | decrease in body weight ([2]; high fat diet-fed mice, 3 mg kg−1 i.p. once daily) |
| --- | --- | --- | --- | --- | --- | --- | --- | --- | --- | --- | --- | --- | --- | --- |
| CN1CCc2cc3c(cc2C(=O)Cc2ccc4c(c2C1)OCO4)OCO3 [protopine] | no significant effect | no significant effect | not observed | did not improve | did not improve | – | – | – | – | – | – | – | – | – |
| COc1ccc2c(c[n+](C)c3c4cc5c(cc4ccc23)OCO5)c1OC [chelerythrine] | enhanced | enhanced and sustained phosphorylation | – | improved | improved | no impact | ablated | insensitive | elevated insulin signaling | < 2 | attenuated | dose-dependent increase | no significant change | ~ 3% |
| B1 | – | – | – | – | – | – | – | – | – | – | abrogated | enhanced phosphorylation of JAK2 | – | – |
